Experimental data reported in the NIST ThermoML archive (doi:10.1021/je900600c).

What was measured:
[1] = xn = mol fraction of the nth substance listed; details: 101 kPa, Liquid; for electrical conductivity: Frequency=0.0005 MHz, crison conductivimeter
[2] = 101 kPa, Liquid; for electrical conductivity: Frequency=0.0005 MHz, crison conductivimeter

O [water] + CCn1cc[n+](C)c1.F[B-](F)(F)F
[1], x1 = 1
Details	viscosity [mPa·s]
288.15 K	1.137
298.15 K	0.89
308.15 K	0.719
318.15 K	0.597

CCCCCCn1cc[n+](C)c1.F[B-](F)(F)F [1-hexyl-3-methylimidazolium tetrafluoroborate]
[2]
Details	electrical conductivity [S/m]	viscosity [mPa·s]
288.15 K	–	357.5
298.15 K	0.126	190.9
308.15 K	–	110.3
318.15 K	–	68.5

CCn1cc[n+](C)c1.F[B-](F)(F)F [1-ethyl-3-methylimidazolium tetrafluoroborate] + O
[1]
Details	electrical conductivity [S/m]	viscosity [mPa·s]
288.15 K, x2 = 0	–	55.5
288.15 K, x2 = 0.0985	–	36.2
288.15 K, x2 = 0.2191	–	23.88
288.15 K, x2 = 0.3053	–	18.26
288.15 K, x2 = 0.3982	–	13.26
288.15 K, x2 = 0.4916	–	10.29
288.15 K, x2 = 0.4933	4	–
288.15 K, x2 = 0.5989	–	7.28
288.15 K, x2 = 0.6991	–	5.43
288.15 K, x2 = 0.8029	–	3.18
288.15 K, x2 = 0.8991	–	2.32
298.15 K, x2 = 0	1.63	36.9
298.15 K, x2 = 0.0985	–	25.2
298.15 K, x2 = 0.2191	–	16.66
298.15 K, x2 = 0.3053	–	13.51
298.15 K, x2 = 0.3665	4.1	–
298.15 K, x2 = 0.3982	–	10.02
298.15 K, x2 = 0.4916	–	7.91
298.15 K, x2 = 0.4933	5.26	–
298.15 K, x2 = 0.5498	6.07	–
298.15 K, x2 = 0.5989	–	5.62
298.15 K, x2 = 0.6599	7.64	–
298.15 K, x2 = 0.6991	–	4.23
298.15 K, x2 = 0.7332	8.15	–
298.15 K, x2 = 0.7856	8.44	–
298.15 K, x2 = 0.8029	–	2.5
298.15 K, x2 = 0.8249	8.52	–
298.15 K, x2 = 0.8555	8.47	–
298.15 K, x2 = 0.8799	8.36	–
298.15 K, x2 = 0.8991	–	1.82
298.15 K, x2 = 0.8999	8.18	–
298.15 K, x2 = 0.9166	7.9	–
298.15 K, x2 = 0.9307	7.43	–
298.15 K, x2 = 0.9428	7.1	–
298.15 K, x2 = 0.9533	6.56	–
298.15 K, x2 = 0.9625	6.13	–
298.15 K, x2 = 0.9706	5.43	–
298.15 K, x2 = 0.9778	4.76	–
298.15 K, x2 = 0.9842	4.03	–
298.15 K, x2 = 0.99	2.95	–
298.15 K, x2 = 0.9952	1.79	–
308.15 K, x2 = 0	–	26
308.15 K, x2 = 0.0985	–	18.45
308.15 K, x2 = 0.2191	–	12.64
308.15 K, x2 = 0.3053	–	10.39
308.15 K, x2 = 0.3982	–	7.85
308.15 K, x2 = 0.4916	–	6.26
308.15 K, x2 = 0.4933	5.9	–
308.15 K, x2 = 0.5989	–	4.49
308.15 K, x2 = 0.6991	–	3.4
308.15 K, x2 = 0.8029	–	2.03
308.15 K, x2 = 0.8991	–	1.477
318.15 K, x2 = 0	–	19.17
318.15 K, x2 = 0.0985	–	14.01
318.15 K, x2 = 0.2191	–	9.9
318.15 K, x2 = 0.3053	–	8.23
318.15 K, x2 = 0.3982	–	6.33
318.15 K, x2 = 0.4916	–	5.09
318.15 K, x2 = 0.4933	6.95	–
318.15 K, x2 = 0.5989	–	3.68
318.15 K, x2 = 0.6991	–	2.81
318.15 K, x2 = 0.8029	–	1.696
318.15 K, x2 = 0.8991	–	1.2

CCn1cc[n+](C)c1.F[B-](F)(F)F [1-ethyl-3-methylimidazolium tetrafluoroborate]
[2]
Details	electrical conductivity [S/m]	viscosity [mPa·s]
288.15 K	–	55.5
298.15 K	1.63	36.9
308.15 K	–	26
318.15 K	–	19.17

O [water]
[2]
Details	viscosity [mPa·s]
288.15 K	1.137
298.15 K	0.89
308.15 K	0.719
318.15 K	0.597

CCCCn1cc[n+](C)c1.F[B-](F)(F)F [1-butyl-3-methylimidazolium tetrafluoroborate]
[2]
Details	electrical conductivity [S/m]	viscosity [mPa·s]
288.15 K	–	173.5
298.15 K	0.352	99.2
308.15 K	–	61.3
318.15 K	–	40.4

CCCCCCn1cc[n+](C)c1.F[B-](F)(F)F [1-hexyl-3-methylimidazolium tetrafluoroborate] + O
[1]
Details	electrical conductivity [S/m]	viscosity [mPa·s]
288.15 K, x2 = 0	–	357.5
288.15 K, x2 = 0.1101	–	200.6
288.15 K, x2 = 0.1679	–	151
288.15 K, x2 = 0.2812	–	100.3
288.15 K, x2 = 0.3581	–	65.4
288.15 K, x2 = 0.4907	0.625	–
288.15 K, x2 = 0.4987	–	38.7
288.15 K, x2 = 0.5075	–	36.4
288.15 K, x2 = 0.573	–	29.4
288.15 K, x2 = 0.72	–	17.55
298.15 K, x2 = 0	0.126	190.9
298.15 K, x2 = 0.1101	–	113.9
298.15 K, x2 = 0.1164	0.202	–
298.15 K, x2 = 0.1679	–	89.1
298.15 K, x2 = 0.2364	0.337	–
298.15 K, x2 = 0.2812	–	61.6
298.15 K, x2 = 0.3232	0.484	–
298.15 K, x2 = 0.3581	–	41.6
298.15 K, x2 = 0.3942	0.627	–
298.15 K, x2 = 0.4548	0.798	–
298.15 K, x2 = 0.4907	0.983	–
298.15 K, x2 = 0.4987	–	25.5
298.15 K, x2 = 0.5075	–	24
298.15 K, x2 = 0.5294	1.06	–
298.15 K, x2 = 0.573	–	19.6
298.15 K, x2 = 0.5896	1.31	–
298.15 K, x2 = 0.652	1.62	–
298.15 K, x2 = 0.7184	1.99	–
298.15 K, x2 = 0.72	–	10.82
308.15 K, x2 = 0	–	110.3
308.15 K, x2 = 0.1101	–	69.4
308.15 K, x2 = 0.1679	–	56.2
308.15 K, x2 = 0.2812	–	40.3
308.15 K, x2 = 0.3581	–	28.1
308.15 K, x2 = 0.4907	1.38	–
308.15 K, x2 = 0.4987	–	17.72
308.15 K, x2 = 0.5075	–	16.76
308.15 K, x2 = 0.573	–	13.83
308.15 K, x2 = 0.72	–	7.76
318.15 K, x2 = 0	–	68.5
318.15 K, x2 = 0.1101	–	45.1
318.15 K, x2 = 0.1679	–	37.5
318.15 K, x2 = 0.2812	–	27.8
318.15 K, x2 = 0.3581	–	19.89
318.15 K, x2 = 0.4907	1.65	–
318.15 K, x2 = 0.4987	–	12.92
318.15 K, x2 = 0.5075	–	12.25
318.15 K, x2 = 0.573	–	10.19
318.15 K, x2 = 0.72	–	5.85
